The molecules below were run against T1, Ubiquitin carboxyl-terminal hydrolase 7 (Homo sapiens, UniProt Q93009) (assay: Inhibition of human USP7 using Ub-EKL as substrate).
T1 sequence (Q93009 whole entry): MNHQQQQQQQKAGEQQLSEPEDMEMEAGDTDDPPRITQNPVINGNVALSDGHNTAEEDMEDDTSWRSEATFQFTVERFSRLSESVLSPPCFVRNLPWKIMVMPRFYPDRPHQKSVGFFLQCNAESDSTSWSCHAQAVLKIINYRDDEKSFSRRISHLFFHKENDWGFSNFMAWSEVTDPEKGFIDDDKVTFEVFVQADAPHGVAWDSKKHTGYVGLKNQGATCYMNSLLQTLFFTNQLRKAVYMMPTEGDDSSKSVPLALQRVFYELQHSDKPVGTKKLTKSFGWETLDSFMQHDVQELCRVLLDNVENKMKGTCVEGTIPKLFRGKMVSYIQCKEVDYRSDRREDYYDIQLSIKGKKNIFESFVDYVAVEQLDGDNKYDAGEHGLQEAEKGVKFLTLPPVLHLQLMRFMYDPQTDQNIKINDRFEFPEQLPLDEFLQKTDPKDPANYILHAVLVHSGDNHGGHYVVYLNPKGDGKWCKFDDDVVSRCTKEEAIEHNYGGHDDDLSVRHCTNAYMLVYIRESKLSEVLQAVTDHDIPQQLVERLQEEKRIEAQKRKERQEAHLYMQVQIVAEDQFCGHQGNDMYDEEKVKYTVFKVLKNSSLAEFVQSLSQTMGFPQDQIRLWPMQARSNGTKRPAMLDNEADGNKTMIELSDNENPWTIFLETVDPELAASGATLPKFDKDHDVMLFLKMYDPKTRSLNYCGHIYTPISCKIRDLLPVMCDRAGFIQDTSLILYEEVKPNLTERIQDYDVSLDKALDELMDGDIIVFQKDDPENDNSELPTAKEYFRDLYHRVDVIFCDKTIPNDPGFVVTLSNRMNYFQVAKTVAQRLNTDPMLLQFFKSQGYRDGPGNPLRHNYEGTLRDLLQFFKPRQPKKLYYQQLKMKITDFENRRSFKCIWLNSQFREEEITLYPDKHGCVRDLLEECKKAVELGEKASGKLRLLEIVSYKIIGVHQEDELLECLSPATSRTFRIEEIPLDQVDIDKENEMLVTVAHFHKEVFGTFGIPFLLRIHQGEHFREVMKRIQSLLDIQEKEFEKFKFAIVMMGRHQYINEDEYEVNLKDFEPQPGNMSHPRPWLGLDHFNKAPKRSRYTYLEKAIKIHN

SMILES | EC50
CNS(=O)(=O)c1ccc(NC(=O)c2nnc(Sc3c(Cl)cncc3Cl)s2)cc1 | < 1000 nM
O=C(Nc1ccc(NCCCN2CCOCC2)cc1)c1nnc(Sc2c(Cl)cncc2Cl)s1 | < 1000 nM
CN(C)CC(O)COc1ccc(NC(=O)c2nnc(Sc3c(Cl)cncc3Cl)s2)cc1 (stereo not drawn) | < 1000 nM
CN(C(=O)c1nnc(Sc2c(Cl)cncc2Cl)s1)c1ccc2c(c1)S(=O)(=O)C=C2 | 1000 nM
O=C(Nc1ccc2c(c1)S(=O)(=O)C=C2)c1cnc(Sc2c(Cl)cncc2Cl)o1 | > 10000 nM
O=C(Nc1ccc2c(c1)S(=O)(=O)C=C2)c1cnc(Sc2ccncc2Cl)s1 | 5000 nM
O=C(Nc1ccc2c(c1)S(=O)(=O)C=C2)c1nnc(Sc2c(Cl)cccc2Cl)s1 | > 10000 nM
CC1CS(=O)(=O)c2cc(NC(=O)c3nnc(Sc4c(Cl)cncc4Cl)s3)ccc21 (stereo not drawn) | 1000 nM
O=C(Nc1ccc2c(c1)S(=O)(=O)C=C2)c1nnc(Sc2c(F)cncc2Cl)s1 | 5000 nM
O=C(Nc1ccc2c(c1)S(=O)(=O)CC2)c1nnc(Sc2c(Cl)cncc2Cl)s1 | < 1000 nM
O=C(Nc1ccc2c(c1)S(=O)(=O)C=C2)c1nnc(Sc2c(Cl)cncc2Cl)o1 | < 1000 nM
CN(C)CCCOc1ccc(NC(=O)c2nnc(Sc3c(Cl)cncc3Cl)s2)cc1 | < 1000 nM
CN(C)CCCOc1ccc(NC(=O)c2nnc(Sc3c(Cl)cncc3Cl)o2)cc1 | > 10000 nM
O=C(Nc1cccc(Cl)n1)c1nnc(Sc2c(Cl)cncc2Cl)s1 | < 1000 nM
Cc1nc2ccc(NC(=O)c3nnc(Sc4c(Cl)cncc4Cl)s3)cc2s1 | 1000 nM
CN(C)CCNC1CS(=O)(=O)c2cc(NC(=O)c3nnc(Sc4c(Cl)cncc4Cl)s3)ccc21 (stereo not drawn) | < 1000 nM
O=C(Nc1cnccn1)c1nnc(Sc2c(Cl)cncc2Cl)s1 | < 1000 nM
CN(C)CCOc1cccc(NC(=O)c2nnc(Sc3c(Cl)cncc3Cl)s2)c1 | < 1000 nM
O=C(Nc1ccc2c(c1)S(=O)(=O)C=C2)c1cnc(Sc2c(Cl)cncc2Cl)s1 | 2000 nM
CN(C)CCCNC1CS(=O)(=O)c2cc(NC(=O)c3cnc(Sc4c(Cl)cncc4Cl)s3)ccc21 (stereo not drawn) | < 1000 nM
O=C(Nc1ccc2c(c1)S(=O)(=O)CC2NCCN1CCOCC1)c1nnc(Sc2c(Cl)cncc2Cl)s1 (stereo not drawn) | < 1000 nM
Cc1c(NC(=O)c2nnc(Sc3c(Cl)cncc3Cl)s2)ccc2c1S(=O)(=O)CC2 | 2000 nM
Nc1ncc(Cl)c(Sc2nnc(C(=O)Nc3ccc4c(c3)S(=O)(=O)C=C4)s2)c1Cl | 2000 nM
O=C(Nc1ccc2c(c1)S(=O)(=O)C=C2)c1nnc(Sc2c(Cl)cncc2Br)s1 | < 1000 nM
CN(C)CCCOc1ccc(NC(=O)c2nnc(Sc3c(Cl)cncc3Br)s2)cc1 | < 1000 nM
CC1CS(=O)(=O)c2cc(NC(=O)c3cnc(Sc4c(Cl)cncc4Cl)s3)ccc21 (stereo not drawn) | 2000 nM
CC(=O)c1cccc(NC(=O)c2nnc(Sc3c(Cl)cncc3Cl)s2)c1 | 1000 nM

Other lines, results leading:

EC50 | SMILES
< 1000 nM | O=C(Nc1ccc2c(c1)S(=O)(=O)C=C2)c1nnc(Sc2c(Cl)cncc2Cl)s1
2000 nM | COCCOCCN(C(=O)c1nnc(Sc2c(Cl)cncc2Cl)s1)c1ccc2c(c1)S(=O)(=O)CC2
1000 nM | O=C(Nc1cnc2ccccc2c1)c1nnc(Sc2c(Cl)cncc2Cl)s1
5000 nM | O=C(Nc1ccc2c(c1)S(=O)(=O)C=C2)c1sc(Sc2c(Cl)cncc2Cl)nc1C(F)(F)F
> 10000 nM | CN(C)CCCOc1ccc(NC(=O)c2cnc(Sc3c(Cl)cncc3Cl)s2)cc1
< 1000 nM | CN(C)CCCNc1ccc(NC(=O)c2nnc(Sc3c(Cl)cncc3Cl)s2)cc1
1000 nM | O=C(Nc1ccc2c(c1)C(=O)CC2)c1nnc(Sc2c(Cl)cncc2Cl)s1
1000 nM | CS(=O)(=O)c1cccc(NC(=O)c2nnc(Sc3c(Cl)cncc3Cl)s2)c1

What follows are molecules tested against T1, Ubiquitin carboxyl-terminal hydrolase 7 (assay: Inhibition of human USP7 using ubiquitin-Rh110 as substrate incubated for 23 to 45 mins by fluorescence based assay).

SMILES | IC50
O=C(c1ccc(-c2ccc3ncccc3c2)cc1)N1CCC(O)(Cn2cnn3cccc3c2=O)CC1 | 1000 nM
O=C(c1cccc(-c2ccc(Cl)cc2)c1)N1CCC(O)(Cn2cnn3cccc3c2=O)CC1 | 1000 nM
CC(CC(=O)N1CCC(O)(Cn2cnn3cccc3c2=O)CC1)c1ccccc1 (stereo not drawn) | < 1000 nM
O=C(c1cccc(-c2ccccc2F)c1)N1CCC(O)(Cn2cnn3cccc3c2=O)CC1 | 1000 nM
Cc1ccc(-c2ncc3c(=O)n(CC4(O)CCN(C(=O)C[C@H](C)n5cccn5)CC4)cnn23)cc1 | 1000 nM
Cc1ccccc1-c1cccc(C(=O)N2CCC(O)(Cn3cnn4cccc4c3=O)CC2)c1 | 1000 nM
CNC(=O)Nc1cc2c(=O)n(CC3(O)CCN(C(=O)C[C@@H](C)c4ccccc4)CC3)cnn2c1 | < 1000 nM
O=C(c1ccc(-c2cccc(C(=O)N3CCC(O)(Cn4cnn5cccc5c4=O)CC3)c2)cc1)N1CCCC1 | 1000 nM
O=C(c1ccc(-c2cnc3ccccc3c2)cc1)N1CCC(O)(Cn2cnn3cccc3c2=O)CC1 | 1000 nM
CC(=O)Nc1cc2c(=O)n(CC3(O)CCN(C(=O)C[C@@H](C)c4ccccc4)CC3)cnn2c1 | < 1000 nM
O=C(c1ccc(Sc2ccccc2)cc1)N1CCC(O)(Cn2cnn3cccc3c2=O)CC1 | 1000 nM
Cc1ccc2c(=O)n(CC3(O)CCN(C(=O)C(C)Cc4ccccc4)CC3)cnn12 (stereo not drawn) | 1000 nM
Cc1cc(C(F)(F)F)nn1Cc1ccc(C(=O)N2CCC(O)(Cn3cnn4cccc4c3=O)CC2)cc1 | 1000 nM
O=C(c1ccc(Cn2nnc3ccccc32)cc1)N1CCC(O)(Cn2cnn3cccc3c2=O)CC1 | 1000 nM
CCC(Cc1ccccc1)C(=O)N1CCC(O)(Cn2cnn3cccc3c2=O)CC1 (stereo not drawn) | 1000 nM
O=C(c1cccc(-c2ccc3ncccc3c2)c1)N1CCC(O)(Cn2cnn3cccc3c2=O)CC1 | 1000 nM
O=C(c1cccc(-c2ccccc2)c1)N1CCC(O)(Cn2cnn3cccc3c2=O)CC1 | 1000 nM

SMILES | IC50
Cc1ccc2[nH]ncc2c1-c1cccc(C(=O)N2CCC(O)(Cn3cnn4cccc4c3=O)CC2)c1 | 1000 nM
CC(C)(C)C(Cc1ccccc1)C(=O)N1CCC(O)(Cn2cnn3cccc3c2=O)CC1 (stereo not drawn) | 1000 nM
C=C(C)C(=O)Nc1ccccc1-c1ccc(C(=O)N2CCC(O)(Cn3cnn4cccc4c3=O)CC2)cc1 | 1000 nM
Cn1c(-c2cccc(C(=O)N3CCC(O)(Cn4cnn5cccc5c4=O)CC3)c2)cc2ccccc21 | < 1000 nM
Cc1ccc(-c2ncc3c(=O)n(CC4(O)CCN(C(=O)CC(C)n5cccn5)CC4)cnn23)cc1 (stereo not drawn) | 1000 nM
O=C(c1cnc(C2CC2)o1)N1CCC(O)(Cn2cnn3c(-c4ccc(F)cc4)ncc3c2=O)CC1 | 1000 nM
C[C@H](CC(=O)N1CCC(O)(Cn2cnn3cccc3c2=O)CC1)c1ccccc1 | < 200 nM
CCN(c1ccccc1)c1ccc(C(=O)N2CCC(O)(Cn3cnn4cccc4c3=O)CC2)cc1 | 1000 nM
O=C(c1ccccc1)N1CCC(O)(Cn2cnn3c(-c4ccccc4)ncc3c2=O)CC1 | 1000 nM
CC(CC(=O)N1CCC(O)(Cn2cnn3cccc3c2=O)CC1)n1cccc1 (stereo not drawn) | < 200 nM
Cc1cc2c(=O)n(CC3(O)CCN(C(=O)C(C)Cc4ccccc4)CC3)cnn2c1 (stereo not drawn) | 1000 nM
O=C(c1cccc(-c2cccc(F)c2)c1)N1CCC(O)(Cn2cnn3cccc3c2=O)CC1 | 1000 nM
O=C(c1ccc(Cn2cnc3ccccc32)cc1)N1CCC(O)(Cn2cnn3cccc3c2=O)CC1 | 1000 nM
COc1ccc(-c2cccc(C(=O)N3CCC(O)(Cn4cnn5cccc5c4=O)CC3)c2)cc1 | 1000 nM
Cc1ccc2c(=O)n(CC3(O)CCN(C(=O)CC(C)c4ccccc4)CC3)cnn12 (stereo not drawn) | < 1000 nM
Cc1cc2c(=O)n(CC3(O)CCN(C(=O)CC(C)c4ccccc4)CC3)cnn2c1 (stereo not drawn) | 1000 nM

The remaining lines, values ahead:

IC50 | SMILES
1000 nM | O=C(COc1cccc(Cl)c1Cl)Nc1cc2c(=O)n(CC3(O)CCN(C(=O)C4CC4)CC3)cnn2c1
1000 nM | CN(C)C(=O)c1ccc(-c2cccc(C(=O)N3CCC(O)(Cn4cnn5cccc5c4=O)CC3)c2)cc1
1000 nM | O=C(c1ccc(Cn2ccnc2)cc1)N1CCC(O)(Cn2cnn3cccc3c2=O)CC1
1000 nM | O=C(c1ccc(-c2ccc(C(=O)N3CCC(O)(Cn4cnn5cccc5c4=O)CC3)c(Cl)c2)cc1)N1CCCCC1
1000 nM | O=C(c1ccc(S(=O)(=O)c2ccccc2)cc1)N1CCC(O)(Cn2cnn3cccc3c2=O)CC1
1000 nM | O=C(c1cccc(-c2cccc(Cl)c2)c1)N1CCC(O)(Cn2cnn3cccc3c2=O)CC1
1000 nM | O=C(c1cccc(-c2ccc3c(c2)OCO3)c1)N1CCC(O)(Cn2cnn3cccc3c2=O)CC1
1000 nM | CC(C)(c1ccccc1)c1ccc(C(=O)N2CCC(O)(Cn3cnn4cccc4c3=O)CC2)cc1
1000 nM | O=C(c1ccccc1)c1ccc(C(=O)N2CCC(O)(Cn3cnn4cccc4c3=O)CC2)cc1
1000 nM | Cc1ccc(-c2cccc(C(=O)N3CCC(O)(Cn4cnn5cccc5c4=O)CC3)c2)cc1
1000 nM | NC(=O)c1ccc(-c2cccc(C(=O)N3CCC(O)(Cn4cnn5cccc5c4=O)CC3)c2)cc1
1000 nM | O=C(c1cccc(-c2ccc3scnc3c2)c1)N1CCC(O)(Cn2cnn3cccc3c2=O)CC1
1000 nM | O=C(c1ccc(Cc2cccs2)cc1)N1CCC(O)(Cn2cnn3cccc3c2=O)CC1
1000 nM | O=C(Nc1cc2c(=O)n(CC3(O)CCN(C(=O)C4CC4)CC3)cnn2c1)c1csc(-c2ccccc2)n1
1000 nM | O=C(c1ccc(F)cc1)N1CCC(O)(Cn2cnn3c(-c4ccc(F)cc4)ncc3c2=O)CC1
1000 nM | O=C(c1ccc(-c2ccc(C(=O)N3CCC(O)(Cn4cnn5cccc5c4=O)CC3)c(C3CCCC3)c2)cc1)N1CCCC1
1000 nM | O=C(c1ccc(-n2cccn2)cc1)N1CCC(O)(Cn2cnn3c(-c4ccc(F)cc4)ncc3c2=O)CC1
1000 nM | CC(CC(=O)N1CCC(O)(Cn2cnn3cc(Cl)cc3c2=O)CC1)c1ccccc1 (stereo not drawn)
1000 nM | Cc1cc(C)n(Cc2ccc(C(=O)N3CCC(O)(Cn4cnn5cccc5c4=O)CC3)cc2)n1
1000 nM | Cc1ccc2cc(-c3ccc(C(=O)N4CCC(O)(Cn5cnn6cccc6c5=O)CC4)cc3)ccc2n1
1000 nM | Cc1ccc(OCC(=O)Nc2cc3c(=O)n(CC4(O)CCN(C(=O)C5CC5)CC4)cnn3c2)cc1C

Each molecule was assayed against T1, Ubiquitin carboxyl-terminal hydrolase 7 (assay: Inhibition of human USP7 using Ub-AMC as substrate).

SMILES | IC50
O=c1c2ccc(Cl)cc2ncn1CC1(O)CCN(CCCc2ccccc2)CC1 | > 100000 nM
CC(CC(=O)N1CCC(O)(Cn2cnc3cc(NC(=O)CCn4ccnc4)ccc3c2=O)CC1)c1ccccc1 (stereo not drawn) | 240 nM

Second part, the molecule after the results:

IC50 | SMILES
1300 nM | CC(CC(=O)N1CCC(O)(Cn2cnc3cc(Cl)ccc3c2=O)CC1)c1ccccc1 (stereo not drawn)
270 nM | CC(C)C(CC(=O)N1CCC(O)(Cn2cnc3cc(NC(=O)CCN4CCN(C)CC4)ccc3c2=O)CC1)c1ccccc1 (stereo not drawn)

— ChEMBL document CHEMBL5233229, “Recent advances in the development of ubiquitin-specific-processing protease 7 (USP7) inhibitors” (Eur J Med Chem, 2020)
